Data reported in US9546157B2, “Asymmetric piperidinyl-substituted ureas as medicines” (Helsinn Healthcare SA, priority 2014, dated 2017).

Experiments:
GHSR1a [1] = target: T1, GHSR1a (Homo sapiens, UniProt Q92847); assay: Calcium FLIPR assay, GHSR-1a antagonism (reduction of ghrelin response); format: cell-based; details: HEK293/GHSR1a cells, ghrelin 10 nM
T1 construct: expressed in transfected cells; host or cells: HEK293
In short: (§1)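 Uses HEK293 cells expressing GHSR1a, loaded with calcium dye, with FLIPR fluorescence followed for 2 min after addition at t=20 s. Agonism: compound alone. Antagonism: compound with 10 nM ghrelin, potency from reduction of ghrelin response; EC50/IC50 from dose-response curves.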

GHSR1a [2] = target: T1, GHSR1a; assay: Calcium FLIPR assay, GHSR-1a agonism; format: cell-based; set-up: Emax: unit not given here; details: HEK293/GHSR1a cells
In short: as §1

[3] = Metabolic Stability (H = Human); format: in vitro ADME
[4] = Metabolic Stability (M = Mouse); format: in vitro ADME

T1 sequence (Q92847 whole entry): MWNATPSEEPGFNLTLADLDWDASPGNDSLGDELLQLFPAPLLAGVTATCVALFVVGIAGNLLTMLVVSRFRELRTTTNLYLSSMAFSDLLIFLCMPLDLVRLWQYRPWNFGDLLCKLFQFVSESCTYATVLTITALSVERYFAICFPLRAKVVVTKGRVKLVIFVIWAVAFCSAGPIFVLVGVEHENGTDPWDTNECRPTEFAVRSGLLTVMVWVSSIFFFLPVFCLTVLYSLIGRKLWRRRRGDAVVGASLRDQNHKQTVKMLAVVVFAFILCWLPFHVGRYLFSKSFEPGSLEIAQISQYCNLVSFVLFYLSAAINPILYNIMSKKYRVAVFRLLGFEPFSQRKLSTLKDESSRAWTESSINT

Compound | IC50 (GHSR1a [1]) [nM] | EC50 (GHSR1a [2]) [nM] | Metabolic Stability H [3] | Metabolic Stability M [4] | Emax (GHSR1a [2])
CC(NC(=O)N(C)C1CCN(C)CC1)c1ccc(-c2cnn(C)c2)c(Cl)c1Cl (stereo not shown) [Compound H0501, 3-(1-(2,3-dichloro-4-(1-methyl-1H-pyrazol-4-yl)phenyl)ethyl)-1-methyl-1-(1-methylpiperidin-4-yl)urea] | 13 | 22 | High H High M | High H High M | –
CC(NC(=O)N(C)C1CCN(C)CC1)c1ccc(-c2ccoc2)c(Cl)c1Cl (stereo not shown) [Compound H0507, 3-(1-(2,3-dichloro-4-(furan-3-yl)phenyl)ethyl)-1-methyl-1-(1-methylpiperidin-4-yl)urea] | 8 | 12 | High H High M | High H High M | –
COc1ccc(-c2ccc(C(C)NC(=O)N(C)C3CCN(C)CC3)c(Cl)c2Cl)cc1 (stereo not shown) [Compound H0508, 3-(1-(2,3-dichloro-4′-methoxy-[1,1′-biphenyl]-4-yl)ethyl)-1-methyl-1-(1-methylpiperidin-4-yl)urea] | 76 | > 30000 | Medium | High | –
CC(NC(=O)N(C)C1CCN(C)CC1)c1ccc(-c2cnc3[nH]ccc3c2)c(Cl)c1Cl (stereo not shown) [Compound H0514] | 16 | 38 | Medium H Medium M | Medium H Medium M | –
CC(NC(=O)N(C)C1CCN(C)CC1)c1ccc(I)c(Cl)c1Cl (stereo not shown) [Compound H0519, 3-(1-(2,3-dichloro-4-iodophenyl)ethyl)-1-methyl-1-(1-methylpiperidin-4-yl)urea] | 3 | 6 | Medium H Medium M | Medium H Medium M | –
CC(NC(=O)N(C)C1CCN(C)CC1C)c1ccc(-c2cccnc2)c(Cl)c1Cl (stereo not shown) [Compound H0527, 3-(1-(2,3-dichloro-4-(pyridin-3-yl)phenyl)ethyl)-1-(1,3-dimethylpiperidin-4-yl)-1-methylurea] | 19 | > 30000 | Medium H Medium M | Medium H Medium M | –
CC(NC(=O)N(C)C1CCN(C)CC1C)c1ccc(-c2cn[nH]c2)c(Cl)c1Cl (stereo not shown) [Compound H0528, 3-(1-(2,3-dichloro-4-(1H-pyrazol-4-yl)phenyl)ethyl)-1-(1,3-dimethylpiperidin-4-yl)-1-methylurea] | 34 | > 30000 | Medium H Medium M | Medium H Medium M | –
CC(NC(=O)N(C)C1CCN(C)C1)c1ccc(-c2cn[nH]c2)c(Cl)c1Cl (stereo not shown) [Compound H0529, 3-(1-(2,3-dichloro-4-(1H-pyrazol-4-yl)phenyl)ethyl)-1-methyl-1-(1-methylpyrrolidin-3-yl)urea] | 12 | > 30000 | Medium | Poor | –
CC(NC(=O)N(C)C1CCN(C)C1)c1ccc(-c2ccsc2)c(Cl)c1Cl (stereo not shown) [Compound H0531, 3-(1-(2,3-dichloro-4-(thiophen-3-yl)phenyl)ethyl)-1-methyl-1-(1-methylpyrrolidin-3-yl)urea] | 4 | 5 | Medium | Poor | –
COC(=O)c1ccc(CN(C(=O)NC(C)c2ccc(-c3cn[nH]c3)c(Cl)c2Cl)C2CCN(C)CC2)cc1 (stereo not shown) [Compound H0537, methyl 4-((3-(1-(2,3-dichloro-4-(1H-pyrazol-4-yl)phenyl)ethyl)-1-(1-methylpiperidin-4-yl)ureido)methyl)benzoate] | 13 | > 30000 | Poor H Poor M | Poor H Poor M | –
CC(NC(=O)N(C)C1CCN(C)CC1)c1ccc(-c2c[nH]cn2)c(Cl)c1Cl (stereo not shown) [Compound H0542, 3-(1-(2,3-dichloro-4-(1H-imidazol-4-yl)phenyl)ethyl)-1-methyl-1-(1-methylpiperidin-4-yl)urea] | 18 | 15 | High H High M | High H High M | –
CC(NC(=O)N(C)C1CCN(C)CC1)c1ccc(-c2cnccn2)c2ccccc12 (stereo not shown) [Compound H0850, 1-methyl-1-(1-methylpiperidin-4-yl)-3-(1-(4-(pyrazin-2-yl)naphthalen-1-yl)ethyl)urea] | 1200 | > 30000 | – | – | –
CC(NC(=O)N(C)C1CCN(C)CC1)c1ccc(-c2nc(C3CC3)no2)c(Cl)c1Cl (stereo not shown) [Compound H0851, 3-(1-(2,3-dichloro-4-(3-cyclopropyl-1,2,4-oxadiazol-5-yl)phenyl)ethyl)-1-methyl-1-(1-methylpiperidin-4-yl)urea] | 11 | 6 | – | – | 3320
CC(C)C#Cc1ccc(C(C)NC(=O)N(C)C2CCN(C)CC2)c(Cl)c1Cl (stereo not shown) [Compound H0852, 3-(1-(2,3-dichloro-4-(3-methylbut-1-yn-1-yl)phenyl)ethyl)-1-methyl-1-(1-methylpiperidin-4-yl)urea] | 22 | 18 | – | – | 1683
CC(NC(=O)C(C)N1CCN(C)CC1)c1ccc(-c2cnccn2)c(Cl)c1Cl (stereo not shown) [Compound H0853, N-(1-(2,3-dichloro-4-(pyrazin-2-yl)phenyl)ethyl)-2-(4-methylpiperazin-1-yl)propanamide] | 1500 | > 30000 | – | – | –
CC(NC(=O)N(C)C1CCN(C)CC1)c1ccc(-c2cnc(C3CC3)nc2)c(Cl)c1Cl (stereo not shown) [Compound H0854, 3-(1-(2,3-dichloro-4-(2-cyclopropylpyrimidin-5-yl)phenyl)ethyl)-1-methyl-1-(1-methylpiperidin-4-yl)urea] | 65 | 24 | – | – | 3246
CC(NC(=O)N(C)C1CCN(C)CC1)c1ccc(C#CC2CC2)c(Cl)c1F (stereo not shown) [Compound H0855, 3-(1-(3-chloro-4-(cycloprropylethynyl)-2-fluorophenyl)ethyl)-1-methyl-1-(1-methylpiperidin-4-yl)urea] | 256 | > 30000 | – | – | –
CC(NC(=O)N(C)C1CCN(C)CC1)c1ccc(-c2cnccn2)c(Cl)c1F (stereo not shown) [Compound H0856, 3-(1-(3-chloro-2-fluoro-4-(pyrazin-2-yl)phenyl)ethyl)-1-methyl-1-(1-methylpiperidin-4-yl)urea] | 339 | > 30000 | – | – | –
CCC(NC(=O)N(C)C1CCN(C)C1)c1ccc(-c2cncc(F)n2)c(Cl)c1Cl (stereo not shown) [Compound H0864, 3-(1-(2,3-dichloro-4-(6-fluoropyrazin-2-yl)phenyl)propyl)-1-methyl-1-(1-methylpyrrolidin-3-yl)urea] | 718 | > 30000 | – | – | –
CN1CCC(N(C)C(=O)NC(c2ccc(-c3cnccn3)c(Cl)c2Cl)C(F)(F)F)C1 (stereo not shown) [Compound H0871, 3-(1-(2,3-dichloro-4-(pyrazin-2-yl)phenyl)-2,2,2-trifluoroethyl)-1-methyl-1-(1-methylpyrrolidin-3-yl)urea] | 9 | > 30000 | – | – | –
CN1CCC(N(C)C(=O)NC(CC2CC2)c2ccc(-c3cnccn3)c(Cl)c2Cl)C1 (stereo not shown) [Compound H0874, 3-(2-cyclopropyl-1-(2,3-dichloro-4-(pyrazin-2-yl)phenyl)ethyl)-1-methyl-1-(1-methylpyrrolidin-3-yl)urea] | 115 | > 30000 | – | – | –
CC(NC(=O)N(C)C1CCN(C)CC1)c1ccc(OC2CC2)c(Cl)c1Cl (stereo not shown) [Compound H0875, 3-(1-(2,3-dichloro-4-cyclopropoxyphenyl)ethyl)-1-methyl-1-(1-methylpiperidin-4-yl)urea] | 91 | 50 | – | – | 3751
CC(NC(=O)N(C)C1CCN(C)CC1)c1cnc(Cl)c(Cl)c1Cl (stereo not shown) [Compound H0876, 1-methyl-1-(1-methylpiperidin-4-yl)-3-(1-(4,5,6-trichloropyridin-3-yl)ethyl)urea] | 130 | > 30000 | – | – | –
CC(NC(=O)N(C)C1CCN(C)CC1)c1cnc(-c2cnccn2)c(Cl)c1Cl (stereo not shown) [Compound H0881, 3-(1-(4,5-dichloro-6-(pyrazin-2-yl)pyridin-3-yl)ethyl)-1-methyl-1-(1-methylpiperidin-4-yl)urea] | 810 | > 30000 | – | – | –
CC(NC(=O)N(C)C1CCN(C)CC1)c1cnc(C#CC2CC2)c(Cl)c1Cl (stereo not shown) [Compound H0884, 3-(1-(4,5-dichloro-6-(cyclopropylethynyl)pyridin-3-yl)ethyl)-1-methyl-1-(1-methylpiperidin-4-yl)urea] | 197 | > 30000 | – | – | –
CCC(NC(=O)N(CC)C1CCN(C)CC1)c1ccc(-c2cnccn2)c(Cl)c1Cl (stereo not shown) [Compound H0896, 3-(1-(2,3-dichloro-4-(pyrazin-2-yl)phenyl)propyl)-1-ethyl-1-(1-methylpiperidin-4-yl)urea] | 7 | > 30000 | – | – | –
CC(NC(=O)N(C)C1CCN(C)CC1)c1ccc(-c2cncc(C(F)(F)F)n2)c(Cl)c1Cl (stereo not shown) [Compound H0910, 3-(1-(2,3-dichloro-4-(6-(trifluoromethyl)pyrazin-2-yl)phenyl)ethyl)-1-methyl-1-(1-methylpiperidin-4-yl)urea] | 125 | 19 | – | – | 1359
COC(=O)C(NC(=O)N(C)C1CCN(C)CC1)c1ccc(-c2cnccn2)c(Cl)c1Cl (stereo not shown) [Compound H0922, methyl 2-(2,3-dichloro-4-(pyrazin-2-yl)phenyl)-2-(3-methyl-3-(1-methylpiperidin-4-yl)ureido)acetate] | 2800 | > 30000 | – | – | –
CN1CCC(N(C)C(=O)NC(CO)c2ccc(-c3cnccn3)c(Cl)c2Cl)CC1 (stereo not shown) [Compound H0924, 3-(1-(2,3-dichloro-4-(pyrazin-2-yl)phenyl)-2-hydroxyethyl)-1-methyl-1-(1-methylpiperidin-4-yl)urea] | 300 | > 30000 | – | – | –
